What was measured:
Assay type in all cases: cell-based
PYR1 K59R A160G V164K = molecular target: T1, PYR1 K59R A160G V164K (Arabidopsis thaliana, UniProt O49686, A160G/K59R/V164K); experiment: Y2H Combinatorial Mutagenesis Screen I (HAB1, X-gal)
T1 construct: expressed in transfected cells; host or cells: S. cerevisiae Y190 two-hybrid reporter strain
From the text: (§1) This screening approach yielded mutants at ligand contacting residues that alter sensitivity to specific ligands. We reasoned that receptor sensitivity could be improved by systematically constructing combinations of the best mutant variants identified in the first round of screening. To test this, we constructed mutant combinations using the strongest mutations identified for mandipropamid, benzothiadiazole, benoxacor or fludioxonil sensitivity. The mutations selected for combinatorial mutagenesis are listed in bold type in Table 1; The mutant combinations were constructed using the QuickChange Lightning Multi Site-Directed PCR Mutagenesis kit (Agilent, USA) using pBD-PYR1^K59R template DNA and mutagenic primers, essentially as previously described (Mosquna et al., 2011). The mutant combinations were sequence validated, introduced into the pACT-HAB1 Y190 reporter strain and then tested for responsiveness to a range of compound concentrations (100, 50, 25, 10, 1, 0.2, 0.1 or 0 μM each test compound). These efforts yielded double mutant receptor variants with improved sensitivity for the 4 compound/receptor pairs examined (see entries labeled “Combinatorial Mutagenesis Screen I” in Table 1).

PYR1 K59R A160G L117C = molecular target: T2, PYR1 K59R A160G L117C (Arabidopsis thaliana, UniProt O49686, A160G/K59R/L117C); experiment: as above
T2 construct: expressed in transfected cells; host or cells: S. cerevisiae Y190 two-hybrid reporter strain
From the text: as §1

PYR1 K59R L117C V164K = molecular target: T3, PYR1 K59R L117C V164K (Arabidopsis thaliana, UniProt O49686, K59R/L117C/V164K); experiment: as above
T3 construct: expressed in transfected cells; host or cells: S. cerevisiae Y190 two-hybrid reporter strain
From the text: as §1

PYR1 K59R E141Y A160G = molecular target: T4, PYR1 K59R E141Y A160G (Arabidopsis thaliana, UniProt O49686, A160G/E141Y/K59R); experiment: as above
T4 construct: expressed in transfected cells; host or cells: S. cerevisiae Y190 two-hybrid reporter strain
From the text: as §1

PYR1 K59R A89C A160G = molecular target: T5, PYR1 K59R A89C A160G (Arabidopsis thaliana, UniProt O49686, A160G/A89C/K59R); experiment: as above
T5 construct: expressed in transfected cells; host or cells: S. cerevisiae Y190 two-hybrid reporter strain
From the text: as §1

PYR1 K59R A89C V164K = molecular target: T6, PYR1 K59R A89C V164K (Arabidopsis thaliana, UniProt O49686, A89C/K59R/V164K); experiment: as above
T6 construct: expressed in transfected cells; host or cells: S. cerevisiae Y190 two-hybrid reporter strain
From the text: as §1

PYR1 K59R A89C L117C = molecular target: T7, PYR1 K59R A89C L117C (Arabidopsis thaliana, UniProt O49686, A89C/K59R/L117C); experiment: as above
T7 construct: expressed in transfected cells; host or cells: S. cerevisiae Y190 two-hybrid reporter strain
From the text: as §1

PYR1 K59R A89C E141Y = molecular target: T8, PYR1 K59R A89C E141Y (Arabidopsis thaliana, UniProt O49686, A89C/E141Y/K59R); experiment: as above
T8 construct: expressed in transfected cells; host or cells: S. cerevisiae Y190 two-hybrid reporter strain
From the text: as §1

PYR1 K59R A89C = molecular target: T9, PYR1 K59R A89C (Arabidopsis thaliana, UniProt O49686, A89C/K59R); experiment: Y2H Pocket Library Screen (HAB1, X-gal)
T9 construct: expressed in transfected cells; host or cells: S. cerevisiae Y190 yeast two-hybrid reporter strain
Method: (§2) The set of 475 mutant plasmids were individually transformed into the Y190 yeast two hybrid reporter strain co-transformed with pACT-HAB1, as previously described (Park et al., 2009). The yeast strains generated were arrayed into 96-well plates yielding what we refer to as the “pocket library”. The pocket library strains were spotted onto agar plates containing selective synthetic dextrose (minus Leu & Trp) medium that was supplemented with a single test compound at 100 μM. The pocket library strains were separately tested for responsiveness to the following compounds: dichlobenil, benzothiadiazole, mandipropamid, fludioxonil, and benoxacor. After incubating test plates at 30° C. for two days, colonies were chloroform lysed and stained to reveal β-galactosidase expression levels, using previously described methods (Park et al., 2009). Mutants displaying responsiveness to the test compound, if present, were identified by virtue of X-gal staining and then subjected to subsequent optimization efforts. Using this approach we identified mutations that conferred detectable sensitivity to the compounds tested (see entries labeled “Pocket Library Screens” in Table 1).

PYR1 K59R V164K = molecular target: T10, PYR1 K59R V164K (Arabidopsis thaliana, UniProt O49686, K59R/V164K); experiment: Y2H Pocket Library Screen (HAB1, X-gal)
T10 construct: expressed in transfected cells; host or cells: S. cerevisiae Y190
Method: as §2

PYR1 K59R E141K = molecular target: T11, PYR1 K59R E141K (Arabidopsis thaliana, UniProt O49686, E141K/K59R); experiment: Y2H Pocket Library Screen (HAB1, X-gal)
T11 construct: expressed in transfected cells; host or cells: S. cerevisiae Y190 two-hybrid reporter strain
Method: as §2

PYR1 K59R M158I = molecular target: T12, PYR1 K59R M158I (Arabidopsis thaliana, UniProt O49686, K59R/M158I); experiment: Y2H Pocket Library Screen (HAB1, X-gal)
T12 construct: expressed in transfected cells; host or cells: S. cerevisiae Y190 two-hybrid reporter strain
Method: as §2

PYR1 K59R T162K = molecular target: T13, PYR1 K59R T162K (Arabidopsis thaliana, UniProt O49686, K59R/T162K); experiment: Y2H Pocket Library Screen (HAB1, X-gal)
T13 construct: expressed in transfected cells; host or cells: S. cerevisiae Y190
Method: as §2

PYR1 K59R F159I = molecular target: T14, PYR1 K59R F159I (Arabidopsis thaliana, UniProt O49686, F159I/K59R); experiment: Y2H Pocket Library Screen (HAB1, X-gal)
T14 construct: expressed in transfected cells; host or cells: S. cerevisiae Y190 two-hybrid reporter strain
Method: as §2

PYR1 K59R E141Y = molecular target: T15, PYR1 K59R E141Y (Arabidopsis thaliana, UniProt O49686, E141Y/K59R); experiment: Y2H Pocket Library Screen (HAB1, X-gal)
T15 construct: expressed in transfected cells; host or cells: S. cerevisiae Y190 two-hybrid reporter strain
Method: as §2

PYR1 K59R F159T = molecular target: T16, PYR1 K59R F159T (Arabidopsis thaliana, UniProt O49686, F159T/K59R); experiment: Y2H Pocket Library Screen (HAB1, X-gal)
T16 construct: expressed in transfected cells; host or cells: S. cerevisiae Y190
Method: as §2

PYR1 K59R A160G = molecular target: T17, PYR1 K59R A160G (Arabidopsis thaliana, UniProt O49686, A160G/K59R); experiment: Y2H Pocket Library Screen (HAB1, X-gal)
T17 construct: expressed in transfected cells; host or cells: S. cerevisiae Y190
Method: as §2

PYR1 K59R F159C = molecular target: T18, PYR1 K59R F159C (Arabidopsis thaliana, UniProt O49686, F159C/K59R); experiment: Y2H Pocket Library Screen (HAB1, X-gal)
T18 construct: expressed in transfected cells; host or cells: S. cerevisiae Y190 two-hybrid reporter strain
Method: as §2

PYR1 K59R F159V = molecular target: T19, PYR1 K59R F159V (Arabidopsis thaliana, UniProt O49686, F159V/K59R); experiment: Y2H Pocket Library Screen (HAB1, X-gal)
T19 construct: expressed in transfected cells; host or cells: S. cerevisiae Y190
Method: as §2

PYR1 K59R F159M = molecular target: T20, PYR1 K59R F159M (Arabidopsis thaliana, UniProt O49686, F159M/K59R); experiment: Y2H Pocket Library Screen (HAB1, X-gal)
T20 construct: expressed in transfected cells; host or cells: S. cerevisiae Y190
Method: as §2

PYR1 K59R V164Y = molecular target: T21, PYR1 K59R V164Y (Arabidopsis thaliana, UniProt O49686, K59R/V164Y); experiment: Y2H Pocket Library Screen (HAB1, X-gal)
T21 construct: expressed in transfected cells; host or cells: S. cerevisiae Y190 two-hybrid reporter strain
Method: as §2

PYR1 K59R L117C = molecular target: T22, PYR1 K59R L117C (Arabidopsis thaliana, UniProt O49686, K59R/L117C); experiment: Y2H Pocket Library Screen (HAB1, X-gal)
T22 construct: expressed in transfected cells; host or cells: S. cerevisiae Y190 two-hybrid reporter strain
Method: as §2

PYR1 K59R M158T = molecular target: T23, PYR1 K59R M158T (Arabidopsis thaliana, UniProt O49686, K59R/M158T); experiment: Y2H Pocket Library Screen (HAB1, X-gal)
T23 construct: expressed in transfected cells; host or cells: S. cerevisiae Y190 two-hybrid reporter strain
Method: as §2

PYR1 K59R M158V = molecular target: T24, PYR1 K59R M158V (Arabidopsis thaliana, UniProt O49686, K59R/M158V); experiment: Y2H Pocket Library Screen (HAB1, X-gal)
T24 construct: expressed in transfected cells; host or cells: S. cerevisiae Y190 two-hybrid reporter strain
Method: as §2

PYR1 K59R T162Y = molecular target: T25, PYR1 K59R T162Y (Arabidopsis thaliana, UniProt O49686, K59R/T162Y); experiment: Y2H Pocket Library Screen (HAB1, X-gal)
T25 construct: expressed in transfected cells; host or cells: S. cerevisiae Y190
Method: as §2

PYR1 K59R V81I = molecular target: T26, PYR1 K59R V81I (Arabidopsis thaliana, UniProt O49686, K59R/V81I); experiment: Y2H Pocket Library Screen (HAB1, X-gal)
T26 construct: expressed in transfected cells; host or cells: S. cerevisiae Y190 yeast two-hybrid reporter strain
Method: as §2

PYR1 K59R M158C = molecular target: T27, PYR1 K59R M158C (Arabidopsis thaliana, UniProt O49686, K59R/M158C); experiment: Y2H Pocket Library Screen (HAB1, X-gal)
T27 construct: expressed in transfected cells; host or cells: S. cerevisiae Y190 two-hybrid reporter strain
Method: as §2

PYR1 K59R V83L = molecular target: T28, PYR1 K59R V83L (Arabidopsis thaliana, UniProt O49686, K59R/V83L); experiment: Y2H Pocket Library Screen (HAB1, X-gal)
T28 construct: expressed in transfected cells; host or cells: S. cerevisiae Y190 yeast two-hybrid reporter strain
Method: as §2

PYR1 K59R T162W = molecular target: T29, PYR1 K59R T162W (Arabidopsis thaliana, UniProt O49686, K59R/T162W); experiment: Y2H Pocket Library Screen (HAB1, X-gal)
T29 construct: expressed in transfected cells; host or cells: S. cerevisiae Y190
Method: as §2

PYR1 K59R F159A = molecular target: T30, PYR1 K59R F159A (Arabidopsis thaliana, UniProt O49686, F159A/K59R); experiment: Y2H Pocket Library Screen (HAB1, X-gal)
T30 construct: expressed in transfected cells; host or cells: S. cerevisiae Y190 two-hybrid reporter strain
Method: as §2

PYR1 K59R F159L = molecular target: T31, PYR1 K59R F159L (Arabidopsis thaliana, UniProt O49686, F159L/K59R); experiment: Y2H Pocket Library Screen (HAB1, X-gal)
T31 construct: expressed in transfected cells; host or cells: S. cerevisiae Y190
Method: as §2

Measured: Threshold

T19 sequence (O49686 whole entry K59R/F159V): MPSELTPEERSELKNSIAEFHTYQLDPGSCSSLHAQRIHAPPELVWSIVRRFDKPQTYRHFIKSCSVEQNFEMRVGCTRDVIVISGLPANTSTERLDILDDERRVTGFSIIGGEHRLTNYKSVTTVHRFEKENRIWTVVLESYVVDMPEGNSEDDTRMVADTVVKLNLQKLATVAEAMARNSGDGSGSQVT
T19 sequence (Q9CAJ0 23-511, further chain): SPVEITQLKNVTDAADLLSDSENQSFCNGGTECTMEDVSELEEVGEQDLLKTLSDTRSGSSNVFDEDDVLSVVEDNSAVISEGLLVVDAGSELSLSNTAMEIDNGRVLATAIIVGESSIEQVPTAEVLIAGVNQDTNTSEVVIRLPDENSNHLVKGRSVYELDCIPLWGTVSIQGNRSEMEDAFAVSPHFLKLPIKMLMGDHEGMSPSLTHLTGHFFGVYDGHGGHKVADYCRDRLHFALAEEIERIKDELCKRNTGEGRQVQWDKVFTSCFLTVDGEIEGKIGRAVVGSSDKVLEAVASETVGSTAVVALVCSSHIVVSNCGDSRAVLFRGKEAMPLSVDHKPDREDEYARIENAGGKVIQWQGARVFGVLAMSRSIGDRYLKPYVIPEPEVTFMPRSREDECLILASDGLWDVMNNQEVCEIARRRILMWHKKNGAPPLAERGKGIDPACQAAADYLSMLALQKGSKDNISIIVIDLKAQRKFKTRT
T12 sequence (O49686 whole entry K59R/M158I): as the sequence (O49686 whole entry K59R/F159V) above, with M158I, V159F counted along it
T12 sequence (Q9CAJ0 23-511, further chain): as the sequence (Q9CAJ0 23-511, further chain) above
T14 sequence (O49686 whole entry K59R/F159I): as the sequence (O49686 whole entry K59R/F159V) above, with V159I counted along it
T14 sequence (Q9CAJ0 23-511, further chain): as the sequence (Q9CAJ0 23-511, further chain) above
T21 sequence (O49686 whole entry K59R/V164Y): as the sequence (O49686 whole entry K59R/F159V) above, with V159F, V164Y counted along it
T21 sequence (Q9CAJ0 23-511, stated change not applied, further chain): as the sequence (Q9CAJ0 23-511, further chain) above
T24 sequence (O49686 whole entry K59R/M158V): as the sequence (O49686 whole entry K59R/F159V) above, with M158V, V159F counted along it
T24 sequence (Q9CAJ0 23-511, further chain): as the sequence (Q9CAJ0 23-511, further chain) above
T13 sequence (O49686 whole entry K59R/T162K): as the sequence (O49686 whole entry K59R/F159V) above, with V159F, T162K counted along it
T13 sequence (Q9CAJ0 23-511, further chain): as the sequence (Q9CAJ0 23-511, further chain) above
T7 sequence (O49686 whole entry K59R/A89C/L117C): as the sequence (O49686 whole entry K59R/F159V) above, with A89C, L117C, V159F counted along it
T7 sequence (Q9CAJ0 23-511, stated change not applied, further chain): as the sequence (Q9CAJ0 23-511, further chain) above

c1ccc2snnc2c1 [Benzothiadiazole, benzothiadiazole]
25 µM: PYR1 K59R A160G L117C | PYR1 K59R A89C L117C
0.2 µM: PYR1 K59R A89C V164K | PYR1 K59R A89C E141Y
5 µM: PYR1 K59R A160G V164K | PYR1 K59R E141Y A160G | PYR1 K59R A89C A160G
100 µM: all other assays above

Reference: patent publication US9738902B2, “Modified PYR/PYL receptors activated by ligands” (priority 2013, dated 2017)
